What follows are cell lines tested with CC1=CC(=CC=C1)NC2=NC(=CS2)C3=CC=NC=C3 + NC(=O)Nc1cc(-c2cccc(F)c2)sc1C(=O)N[C@H]1CCCNC1 [AZD7762] (partner 0.2 µM) (assay: relative viability (nuclei count vs DMSO), 5 days (fraction); higher = more cells survive). Settings: first compound 0.08 µM.
Summary of the method: (§1)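 Nuclei were stained with Hoechst during a one-step fixation (final 0.05% Triton X-100, 1% formaldehyde, 1 ug/ml Hoechst) carried out 5 days after dosing, then counted on 4× images. The cells, lung cancer lines in 1536-well plates, had been dosed by pin tool the day after seeding with one drug alone or a fixed anchor-drug dose plus five library-drug doses (not always all listed) in √10 steps. Relative viability is the nuclei count in treated wells divided by that in vehicle wells, and each value is the median of duplicate plates.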

Row | Cell Line | relative viability
1 | EKVX | 0.63
2 | LC-2-ad | 0.823
3 | NCI-H2170 | 0.776
4 | NCI-H1993 | 0.688
5 | ABC-1 | 0.675
6 | RERF-LC-KJ | 1.09

Same assay, conditions: first compound 0.253 µM

Row | Cell Line | relative viability
7 | EKVX | 0.703
8 | LC-2-ad | 0.845
9 | NCI-H2170 | 0.829
10 | NCI-H1993 | 0.706
11 | ABC-1 | 0.613
12 | RERF-LC-KJ | 0.691

Same assay, conditions: first compound 0.8 µM

Row | Cell Line | relative viability
13 | LC-2-ad | 0.911
14 | NCI-H2170 | 0.706
15 | NCI-H1993 | 0.641
16 | ABC-1 | 0.688
17 | RERF-LC-KJ | 0.775

Same assay, conditions: first compound 2.53 µM

Row | Cell Line | relative viability
18 | EKVX | 0.764
19 | LC-2-ad | 0.835
20 | NCI-H2170 | 0.749
21 | NCI-H1993 | 0.682
22 | ABC-1 | 0.628
23 | RERF-LC-KJ | 0.222

Same assay, conditions: first compound 8 µM

Row | Cell Line | relative viability
24 | EKVX | 0.524
25 | LC-2-ad | 0.821
26 | NCI-H2170 | 0.521
27 | NCI-H1993 | 0.749
28 | ABC-1 | 0.881
29 | RERF-LC-KJ | 0.911

Each cell line was assayed with Cc1ccc(NC(=O)c2ccc(CN3CCN(C)CC3)cc2)cc1Nc1nc(-c2cccnc2)cs1 [Masitinib] + Cc1nc(NC(=O)N2CCC[C@H]2C(N)=O)sc1-c1ccnc(C(C)(C)C(F)(F)F)c1 [Alpelisib] (partner 2 µM) in the same assay as above. Settings: first compound 0.01 µM.
Summary of the method: as §1

Row | Cell Line | relative viability
30 | LC-2-ad | 0.866
31 | NCI-H2170 | 0.912
32 | NCI-H1993 | 0.669
33 | ABC-1 | 1.26
34 | RERF-LC-KJ | 0.865

Same assay, conditions: first compound 0.03162 µM

Row | Cell Line | relative viability
35 | EKVX | 0.779
36 | LC-2-ad | 0.822
37 | NCI-H2170 | 0.688
38 | ABC-1 | 1.04
39 | RERF-LC-KJ | 0.762

Same assay, conditions: first compound 0.1 µM

Row | Cell Line | relative viability
40 | EKVX | 0.786
41 | LC-2-ad | 0.843
42 | NCI-H2170 | 0.902
43 | NCI-H1993 | 0.627
44 | ABC-1 | 1.01
45 | RERF-LC-KJ | 0.917

Same assay, conditions: first compound 0.3162 µM

Row | Cell Line | relative viability
46 | EKVX | 0.706
47 | LC-2-ad | 0.815
48 | NCI-H2170 | 0.784
49 | NCI-H1993 | 0.728
50 | ABC-1 | 0.813
51 | RERF-LC-KJ | 0.842

Same assay, conditions: first compound 1 µM

Row | Cell Line | relative viability
52 | EKVX | 0.944
53 | LC-2-ad | 0.844
54 | NCI-H2170 | 0.801
55 | NCI-H1993 | 0.636
56 | ABC-1 | 1.01
57 | RERF-LC-KJ | 0.738

What follows are cell lines tested with CC1=CC(=CC=C1)NC2=NC(=CS2)C3=CC=NC=C3 + Cc1cc(Nc2cc(N3CCN(C)CC3)nc(Sc3ccc(NC(=O)C4CC4)cc3)n2)n[nH]1 [Tozasertib] (partner 0.1 µM) in the same assay as above. Settings: first compound 0.08 µM.
Summary of the method: as §1

Row | Cell Line | relative viability
58 | EKVX | 0.45
59 | LC-2-ad | 0.448
60 | NCI-H2170 | 0.729
61 | NCI-H1993 | 0.543
62 | ABC-1 | 0.206
63 | RERF-LC-KJ | 0.447

Same assay, conditions: first compound 0.253 µM

Row | Cell Line | relative viability
64 | EKVX | 0.395
65 | NCI-H2170 | 0.71
66 | NCI-H1993 | 0.605
67 | ABC-1 | 0.173
68 | RERF-LC-KJ | 0.476

Same assay, conditions: first compound 0.8 µM

Row | Cell Line | relative viability
69 | EKVX | 0.36
70 | LC-2-ad | 0.398
71 | NCI-H2170 | 0.663
72 | NCI-H1993 | 0.562
73 | ABC-1 | 0.176
74 | RERF-LC-KJ | 0.438

Same assay, conditions: first compound 2.53 µM

Row | Cell Line | relative viability
75 | EKVX | 0.384
76 | LC-2-ad | 0.371
77 | NCI-H2170 | 0.793
78 | NCI-H1993 | 0.617
79 | ABC-1 | 0.187
80 | RERF-LC-KJ | 0.382

Same assay, conditions: first compound 8 µM

Row | Cell Line | relative viability
81 | EKVX | 0.294
82 | LC-2-ad | 0.384
83 | NCI-H2170 | 0.628
84 | NCI-H1993 | 0.519
85 | ABC-1 | 0.237
86 | RERF-LC-KJ | 0.259

These cell lines were tested with CC1=CC(=CC=C1)NC2=NC(=CS2)C3=CC=NC=C3 + COc1cc2c(Oc3ccc(NC(=O)C4(C(=O)Nc5ccc(F)cc5)CC4)cc3F)ccnc2cc1OCCCN1CCOCC1 [Foretinib] (partner 0.25 µM) in the same assay as above. Settings: first compound 0.08 µM.
Summary of the method: as §1

Row | Cell Line | relative viability
87 | EKVX | 0.941
88 | LC-2-ad | 0.836
89 | NCI-H2170 | 0.975
90 | NCI-H1993 | 0.684
91 | ABC-1 | 1.08
92 | RERF-LC-KJ | 0.847

Same assay, conditions: first compound 0.253 µM

Row | Cell Line | relative viability
93 | EKVX | 0.726
94 | NCI-H2170 | 1.05
95 | NCI-H1993 | 0.635
96 | ABC-1 | 1.14
97 | RERF-LC-KJ | 0.874

Same assay, conditions: first compound 0.8 µM

Row | Cell Line | relative viability
98 | EKVX | 0.578
99 | LC-2-ad | 0.901
100 | NCI-H2170 | 0.986
101 | NCI-H1993 | 0.649
102 | ABC-1 | 1.18
103 | RERF-LC-KJ | 0.718

Same assay, conditions: first compound 2.53 µM

Row | Cell Line | relative viability
104 | EKVX | 0.733
105 | LC-2-ad | 0.909
106 | NCI-H2170 | 0.976
107 | NCI-H1993 | 0.703
108 | ABC-1 | 0.884
109 | RERF-LC-KJ | 0.78

Same assay, conditions: first compound 8 µM

Row | Cell Line | relative viability
110 | EKVX | 0.75
111 | LC-2-ad | 1.07
112 | NCI-H2170 | 0.893
113 | NCI-H1993 | 0.669
114 | ABC-1 | 1.03
115 | RERF-LC-KJ | 0.762

Source: the supplement of paper PMC10307832
